# Molecular target: DGKα (Homo sapiens (Human), UniProt P23743)
# Experiment: Human DGKα kinase activity inhibition assay (ADP-Glo)
# Type: biochemical
# Conditions: recombinant full-length human DGKα, 55 μM ATP, 7 μM 1,2-dioleoyl-sn-glycerol, read-out: IC50 values of examples in in vitro human DGKa kinase activity inhibition assays
# Description: Human DGKα Kinase Activity Inhibition Assay
# Human DGKα inhibitory activity of compounds of the present invention was quantified employing the human DGKα kinase activity assay as described in the following paragraphs. In essence, the enzyme activity was measured by quantification of the adenosine-di-phosphate (ADP) generated as a co-product of the enzyme reaction via the “ADP-Glo™ Kinase Assay” kit from the company Promega. This detection system works as follows: In a first step the ATP not consumed in the kinase reaction is quantitatively converted to cAMP employing an adenylate cyclase (“ADP-Glo-reagent”), then the adenylate cyclase is stopped and the ADP generated in the kinase reaction converted to ATP, which subsequently generates in a luciferase-based reaction a glow-luminescence signal (“Kinase Detection Reagent”).
# C-terminally FLAG-tagged, recombinant full-length human DGKα (expressed in baculovirus infected insect cells, purified using anti-Flag pulldown and size exclusion chromatography as described below, DGKa_hu_1) was used as enzyme. As substrate for the kinase 1,2-dioleoyl-sn-glycerol, reconstituted in octyl-β-D-glucopyranoside micelles, was used. […] Then 35 volumes of 50 mM MOPS buffer (pH 7.4) were added to yield a solution of 0.28 mM 1,2 dioleoyl-sn-glycerol and 200 mM […], which was aliquoted, flash-frozen in liquid nitrogen, and stored at −20° C. until use.
# For the assay 50 nl of a 100-fold concentrated solution of the test compound in dimethyl sulfoxide (DMSO, Sigma) was pipetted into either a white 1536-well or a white low-volume 384-well microtiter plate (both Greiner Bio-One, Frickenhausen, Germany).
# Chain of DGKα (P23743 other isoform, or with tags, fused parts or gaps): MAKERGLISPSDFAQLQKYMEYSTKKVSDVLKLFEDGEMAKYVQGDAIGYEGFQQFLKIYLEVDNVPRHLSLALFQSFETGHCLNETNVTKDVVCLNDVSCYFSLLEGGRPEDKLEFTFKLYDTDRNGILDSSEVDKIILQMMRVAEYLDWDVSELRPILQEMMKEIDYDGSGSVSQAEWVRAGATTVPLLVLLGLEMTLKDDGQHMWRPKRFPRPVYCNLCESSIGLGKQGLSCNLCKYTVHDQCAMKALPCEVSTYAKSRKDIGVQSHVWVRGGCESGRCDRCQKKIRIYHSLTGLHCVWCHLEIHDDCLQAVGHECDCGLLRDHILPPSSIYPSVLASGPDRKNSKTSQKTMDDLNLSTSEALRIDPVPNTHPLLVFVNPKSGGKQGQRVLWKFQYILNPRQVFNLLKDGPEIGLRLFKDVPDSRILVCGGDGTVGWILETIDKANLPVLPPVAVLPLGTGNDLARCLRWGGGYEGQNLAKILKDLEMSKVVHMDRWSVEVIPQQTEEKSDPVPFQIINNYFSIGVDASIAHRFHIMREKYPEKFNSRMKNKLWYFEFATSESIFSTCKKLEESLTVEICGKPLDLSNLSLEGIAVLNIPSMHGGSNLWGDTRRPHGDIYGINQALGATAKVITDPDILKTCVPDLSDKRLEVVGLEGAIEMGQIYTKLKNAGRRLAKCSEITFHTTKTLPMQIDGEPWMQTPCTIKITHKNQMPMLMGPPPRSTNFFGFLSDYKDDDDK
row,Compound,IC50 [nM]
1,"4-[4-(1,3-benzoxazol-5-yl)piperidin-1-y-1-methyl-2-oxo-1,2-dihydroquinoline-3-carbonitrile [Example 67]",85
2,"Cc1ccc2oc(C3CCN(c4c(C#N)c(=O)n(C)c5ccccc45)CC3C)nc2c1 (mixture of isomers) [Example 111, 1-methyl-4-[3-methyl-4-(5-methyl-1,3-benzoxazol-2-yl)piperidin-1-yl]-2-oxo-1,2-dihydroquinoline-3-carbonitrile, mixture of stereoisomers]",3.2
3,"Cc1ccc2oc(C3CCN(c4c(C#N)c(=O)n(C)c5cc(OC6CCOC6)ccc45)CC3)nc2c1 (racemic) [Example 379, (rac)-1-methyl-4-[4-(5-methyl-1,3-benzoxazol-2-yl)piperidin-1-yl]-2-oxo-7-[(oxolan-3-yl)oxy]-1,2-dihydroquinoline-3-carbonitrile]",1
4,"Cc1ccc2oc(C3CCN(c4c(C#N)c(=O)n(C)c5cc(OC6CCOC6)c(Br)cc45)CC3)nc2c1 (racemic) [Example 424, (rac)-6-bromo-1-methyl-4-[4-(5-methyl-1,3-benzoxazol-2-yl)piperidin-1-yl]-2-oxo-7-[(oxolan-3-yl)oxy]-1,2-dihydroquinoline-3-carbonitrile]",0.3
5,"C=C(c1cc2c(N3CCC(c4nc5cc(C)ccc5o4)CC3)c(C#N)c(=O)n(C)c2cc1OC1CCOC1)C(F)(F)F (racemic) [Example 433, (rac)-1-methyl-4-[4-(5-methyl-1,3-benzoxazol-2-yl)piperidin-1-yl]-2-oxo-7-[(oxolan-3-yl)oxy]-6-(3,3,3-trifluoroprop-1-en-2-yl)-1,2-dihydroquinoline-3-carbonitrile]",8.6
6,"Cc1ccc2oc(C3CCN(c4c(C(N)=O)c(=O)n(C)c5cc(OC6CCOC6)c(C6(C(F)(F)F)CC6)cc45)CC3)nc2c1 (racemic) [Example 518, (rac)-1-methyl-4-[4-(5-methyl-1,3-benzoxazol-2-yl)piperidin-1-yl]-2-oxo-7-[(oxolan-3-yl)oxy]-6-[1-(trifluoromethyl)cyclopropyl]-1,2-dihydroquinoline-3-carboxamide]",596
7,"Cc1ccc2oc(C3CCN(c4c(C#N)c(=O)n(C)c5cc(OCC6CCOC6)c(Cl)cc45)CC3)nc2c1 (racemic) [Example 572, (rac)-6-chloro-1-methyl-4-[4-(5-methyl-1,3-benzoxazol-2-yl)piperidin-1-yl]-2-oxo-7-[(oxolan-3-yl)methoxy]-1,2-dihydroquinoline-3-carbonitrile]",1.5
8,"Cc1ccc2oc(C3CCN(c4c(C#N)c(=O)n(C)c5cc(OC6CCOC6)ccc45)CC3)nc2c1 (single isomer, unassigned) [Example 380, 1-methyl-4-[4-(5-methyl-1,3-benzoxazol-2-yl)piperidin-1-yl]-2-oxo-7-[(oxolan-3-yl)oxy]-1,2-dihydroquinoline-3-carbonitrile]",0.4
9,"Cc1ccc2oc(C3CCN(c4c(C#N)c(=O)n(C)c5cc(OC6CCOC6)ccc45)CC3)nc2c1 (single isomer, unassigned) [Example 381, 1-methyl-4-[4-(5-methyl-1,3-benzoxazol-2-yl)piperidin-1-yl]-2-oxo-7[(oxolan-3-yl)oxy]-1,2-dihydroquinoline-3-carbonitrile]",7.4
10,"Cn1c(=O)c(C#N)c(N2CCC(C)(c3nc4ccccc4o3)CC2)c2ccccc21 [Example 1, 4-[4-(1,3-benzoxazol-2-yl)-4-methylpiperidin-1-yl]-1-methyl-2-oxo-1,2-dihydroquinoline-3-carbonitrile]",1.4
11,"Cn1c(=O)c(C#N)c(N2CCC(c3nc4ccccc4o3)CC2)c2ccccc21 [Example 2, 4-[4-(1,3-benzoxazol-2-yl)piperidin-1-yl]-1-methyl-2-oxo-1,2-dihydroquinoline-3-carbonitrile]",6.4
12,"Cn1c(=O)c(C#N)c(N2CCC(c3nc4cccc(F)c4o3)CC2)c2ccccc21 [Example 3, 4-[4-(7-fluoro-1,3-benzoxazol-2-yl)piperidin-1-yl]-1-methyl-2-oxo-1,2-dihydroquinoline-3-carbonitrile]",2.6
13,"Cn1c(=O)c(C#N)c(N2CCC(c3nc4ccc(F)cc4o3)CC2)c2ccccc21 [Example 4, 4-[4-(6-fluoro-1,3-benzoxazol-2-yl)piperidin-1-yl]-1-methyl-2-oxo-1,2-dihydroquinoline-3-carbonitrile]",2.8
14,"Cc1ccc2oc(C3CCN(c4c(C#N)c(=O)n(C)c5ccccc45)CC3)nc2c1 [Example 5, 1-methyl-4-[4-(5-methyl-1,3-benzoxazol-2-yl)piperidin-1-yl]-2-oxo-1,2-dihydroquinoline-3-carbonitrile]",1.6
15,"Cn1c(=O)c(C#N)c(N2CCC(c3nc4cc(F)ccc4o3)CC2)c2ccccc21 [Example 6, 4-[4-(5-fluoro-1,3-benzoxazol-2-yl)piperidin-1-yl]-1-methyl-2-oxo-1,2-dihydroquinoline-3-carbonitrile]",4.3
16,"Cc1ccc2nc(C3CCN(c4c(C#N)c(=O)n(C)c5ccccc45)CC3)oc2c1 [Example 7, 1-methyl-4-[4-(6-methyl-1,3-benzoxazol-2-yl)piperidin-1-yl]-2-oxo-1,2-dihydroquinoline-3-carbonitrile]",3.2
17,"CC(C)c1ccc2oc(C3CCN(c4c(C#N)c(=O)n(C)c5ccccc45)CC3)nc2c1 [Example 8, 1-methyl-2-oxo-4-{4-[5-(propan-2-yl)-1,3-benzoxazol-2-yl]piperidin-1-yl}-1,2-dihydroquinoline-3-carbonitrile]",3.2
18,"Cn1c(=O)c(C#N)c(N2CCC(c3nc4ccc(Cl)cc4o3)CC2)c2ccccc21 [Example 9, 4-[4-(6-chloro-1,3-benzoxazol-2-yl)piperidin-1-yl]-1-methyl-2-oxo-1,2-dihydroquinoline-3-carbonitrile]",3.3
19,"Cn1c(=O)c(C#N)c(N2CCC(c3nc4cc(Cl)ccc4o3)CC2)c2ccccc21 [Example 11, 4-[4-(5-chloro-1,3-benzoxazol-2-yl)piperidin-1-yl]-1-methyl-2-oxo-1,2-dihydroquinoline-3-carbonitrile]",3.8
20,"Cn1c(=O)c(C#N)c(N2CCC(c3nc4ccccc4s3)CC2)c2ccccc21 [Example 12, 4-[4-(1,3-benzothiazol-2-yl)piperidin-1-yl]-1-methyl-2-oxo-1,2-dihydroquinoline-3-carbonitrile]",3.5
21,"Cn1c(=O)c(C#N)c(N2CCC(c3nc4cc(F)ccc4s3)CC2)c2ccccc21 [Example 13, 4-[4-(5-fluoro-1,3-benzothiazol-2-yl)piperidin-1-yl]-1-methyl-2-oxo-1,2-dihydroquinoline-3-carbonitrile]",5.1
22,"Cn1c(=O)c(C#N)c(N2CCC(c3nc4ccc(Br)cc4s3)CC2)c2ccccc21 [Example 14, 4-[4-(6-bromo-1,3-benzothiazol-2-yl)piperidin-1-yl]-1-methyl-2-oxo-1,2-dihydroquinoline-3-carbonitrile]",4.4
23,"Cc1cccc2nc(C3CCN(c4c(C#N)c(=O)n(C)c5ccccc45)CC3)oc12 [Example 15, 1-methyl-4-[4-(7-methyl-1,3-benzoxazol-2-yl)piperidin-1-yl]-2-oxo-1,2-dihydroquinoline-3-carbonitrile]",11
24,"Cn1c(=O)c(C#N)c(N2CCC(F)(c3nc4ccccc4s3)CC2)c2ccccc21 [Example 16, 4-[4-(1,3-benzothiazol-2-yl)-4-fluoropiperidin-1-yl]-1-methyl-2-oxo-1,2-dihydroquinoline-3-carbonitrile]",9.9
25,"Cc1cccc2oc(C3CCN(c4c(C#N)c(=O)n(C)c5ccccc45)CC3)nc12 [Example 17, 1-methyl-4-[4-(4-methyl-1,3-benzoxazol-2-yl)piperidin-1-yl]-2-oxo-1,2-dihydroquinoline-3-carbonitrile]",12
26,"Cn1c(=O)c(C#N)c(N2CCC(c3nc4cc(Cl)ccc4s3)CC2)c2ccccc21 [Example 18, 4-[4-(5-chloro-1,3-benzothiazol-2-yl)piperidin-1-yl]-1-methyl-2-oxo-1,2-dihydroquinoline-3-carbonitrile]",3.7
27,"Cn1c(=O)c(C#N)c(N2CCC(c3nc4ccc(Cl)nc4s3)CC2)c2ccccc21 [Example 19, 4-[4-(5-chloro[1,3]thiazolo[5,4-b]pyridin-2-yl)piperidin-1-yl]-1-methyl-2-oxo-1,2-dihydroquinoline-3-carbonitrile]",15
28,"Cn1c(=O)c(C#N)c(N2CCC(C)(c3nc4ccc(OC(F)(F)F)cc4o3)CC2)c2ccccc21 [Example 20, 1-methyl-4-{4-methyl-4-[6-(trifluoromethoxy)-1,3-benzoxazol-2-yl]piperidin-1-yl}-2-oxo-1,2-dihydroquinoline-3-carbonitrile]",1.5
29,"CC(C)c1ccc2oc(C3(C)CCN(c4c(C#N)c(=O)n(C)c5ccccc45)CC3)nc2c1 [Example 21, 1-methyl-4-{4-methyl-4-[5-(propan-2-yl)-1,3-benzoxazol-2-yl]piperidin-1-yl}-2-oxo-1,2-dihydroquinoline-3-carbonitrile]",5.2
30,"Cn1c(=O)c(C#N)c(N2CCC(c3nc4cc(F)c(F)cc4o3)CC2)c2ccccc21 [Example 22, 4-[4-(5,6-difluoro-1,3-benzoxazol-2-yl)piperidin-1-yl]-1-methyl-2-oxo-1,2-dihydroquinoline-3-carbonitrile]",6

# Reference: patent US11998539B2, “Substituted aminoquinolones as DGKalpha inhibitors for immune activation” (Bayer Aktiengesellschaft, priority 2019, dated 2024)
